Measured values: US11021457B2, “Class of isoindolone-imide ring-1,3-dione-2-ene compounds, composition and use thereof” (WIGEN BIOMEDICINE TECHNOLOGY (SHANGHAI) CO., LTD., priority 2017, dated 2021)
Where two headings read alike, the source gives them in different places.

Tests used:
[1] = test system: SU-DHL6; test: Inhibition of tumor cell proliferation, CellTiter-Glo, SU-DHL6; assay type: cell-based; settings: compound concentration 50 μM, 72 hours
Summary of the method: (§1)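 Activity is graded from survival at 50 μM: + for 60 to under 90%, ++ for over 30 to 60%, +++ for 30% or less. Survival was measured luminescently (CellTiter-Glo) 72 h after dosing, relative to untreated and blank wells; 2000-10000 cells/well, 37° C, 5% CO2.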

[2] = test system: RPMI-8226; test: Inhibition of tumor cell proliferation, CellTiter-Glo, RPMI-8226; assay type: cell-based; settings: compound concentration 50 μM, 72 hours
Summary of the method: as §1

[3] = test system: K562; test: Inhibition of tumor cell proliferation, CellTiter-Glo, K562; assay type: cell-based; settings: compound concentration 50 μM, 72 hours
Summary of the method: as §1

[4] = test system: A549; test: Inhibition of tumor cell proliferation, CellTiter-Glo, A549; assay type: cell-based; settings: compound concentration 50 μM, 72 hours
Summary of the method: as §1

[5] = test system: MDA-MB-453; test: Inhibition of tumor cell proliferation, CellTiter-Glo, MDA-MB-453; assay type: cell-based; settings: compound concentration 50 μM, 72 hours
Summary of the method: as §1

[6] = test system: BxPC-3; test: Inhibition of tumor cell proliferation, CellTiter-Glo, BxPC-3; assay type: cell-based; settings: compound concentration 50 μM, 72 hours
Summary of the method: as §1

[7] = test system: human multiple myeloma RPMI8226 cell xenograft tumor; test: In-vivo anti-tumor efficacy in multiple myeloma xenograft tumor model (tumor volume, T/C, TGI); parameters: species or system mouse; settings: for Average volume (mm3) Start of the treatment Day 1 / Average volume (mm3) End of the treatment Day 21 / T/C %: QD × 21; for Average volume (mm3) End of the treatment Day 21 / T/C %: Day 21
Description: The in-vivo anti-tumor efficacy of the compound 1, lenalidomide, dexamethasone and a combination of the compound 1 or lenalidomide with dexamethasone in human multiple myeloma RPMI8226 cell xenograft tumor model was evaluated.
(§2) The test animals were female CB17 SCID mice. Human RPMI8226 cells were cultured in RPMI1640 medium containing 10% heat-inactivated fetal bovine serum and 1% penicillin-streptomycin double antibody in an incubator with 5% CO2 at 37° C. When the cells were in an exponential growth phase, the cells were harvested, counted, and subcutaneously inoculated into the right dorsal portion of each mouse. The mice were grouped and administered when the average tumor volume reached about 150 mm^3. Grouping method: the animals were weighed and measured for the tumor volume before administration, and grouped by block design according to the tumor volume.
(§3) Whether the tumor growth could be inhibited, delayed or cured was investigated. The diameter of the tumor was measured by a vernier caliper. The tumor volume was calculated by a formula: V=0.5×a×b^2, in which a and b respectively represent the long diameter and short diameter of the tumor. The anti-tumor effect T/C (%) of the compound was evaluated by a formula: T/C %=TRTV/CRTV×100% (TRTV: RTV of the treatment group; CRTV: RTV of the negative control group). The relative tumor volume RTV was calculated by a formula: RTV=Vt/V0, where V0 is the measured tumor volume at the time of grouping and administration (i.e. day 0), and Vt is the tumor volume at each measurement. T/C (%) reflects the inhibition rate on tumor growth. […] The weight of the mice bearing tumor in each group was recorded and analyzed, as shown in FIGS. 1 and 2 and Table 14, and the effect of the compound on the tumor volume of the mice bearing tumor is shown in FIGS. 3 and 4 and Table 15.

[8] = Body weight of tumor-bearing mice in the in-vivo pharmacodynamic test; parameters: species or system mouse; settings: for Average body weight (g) Start of the treatment Day 1 / Average body weight (g) End of the treatment Day 21 / Average RCBW (%)/end of the treatment Day 21: QD × 21; for Average body weight (g) Start of the treatment Day 1 / Average body weight (g) End of the treatment Day 21: x ± SEM; for Average RCBW (%)/end of the treatment Day 21: Day 21 relative to Day 1
Description: as §2, §3

[9] = target: LC3B (Homo sapiens (Human), UniProt Q9GZQ8); test: Fluorescence polarization experiment targeting LC3B (GST-LC3B with FITC-labeled peptide)
[10] = Compound 1 53 mg/kg + Dexamethasone 1 mg/kg
[11] = Compound 1 53 mg/kg p.o + Dexamethasone 1 mg/kg i.p
[12] = GST-LC3B 180 nM, FITC-labeled peptide 18 nM, 25° C.
[13] = Lenalidomide 30 mg/kg + Dexamethasone 1 mg/kg
[14] = Lenalidomide 30 mg/kg p.o, RPMI8226 tumor-bearing mice
[15] = Lenalidomide 30 mg/kg p.o + Dexamethasone 1 mg/kg i.p
[16] = Lenalidomide 30 mg/kg p.o., RPMI8226 tumor-bearing mice

For `O=C1CCC(N2Cc3c(NC=C4C(=O)CC(c5ccccc5)CC4=O)cccc3C2=O)C(=O)N1` (centres unmarked) [Compound 1], the “Inhibitory activity against proliferation (cell survival rate) SU-DHL6” value [1] was “+++ (survival rate (%)≤30)”, the “Inhibitory activity against proliferation (cell survival rate) RPMI-8226” value [2] was “+++ (survival rate (%)≤30)” and the “Inhibitory activity against proliferation (cell survival rate) K562” value [3] was “+++ (survival rate (%)≤30)”. For the same compound, the “Inhibitory activity against proliferation (cell survival rate) A549” value [4] was “+++ (survival rate (%)≤30)”, the “Inhibitory activity against proliferation (cell survival rate) MDA-MB-453” value [5] was “++ (30<survival rate (%)≤60)” and the “Inhibitory activity against proliferation (cell survival rate) BxPC-3” value [6] was “++ (30<survival rate (%)≤60)”. For the same compound, the Tumor inhibition effect ([7]; 17.7 mg/kg, versus lenalidomide 30 mg/kg) was “comparable to that of lenalidomide”, the Anti-tumor effect ([7]; 53 mg/kg (same molar dose as lenalidomide)) was “significantly higher than lenalidomide” and the “Average volume (mm3) Start of the treatment Day 1” value (“Average volume (mm3) Start” below) ([7]; Compound 1 17.7 mg/kg p.o) was 141.27 ± 14.61 mm3. For the same compound, the “Average volume (mm3) End of the treatment Day 21” value (“Average volume (mm3) End” below) ([7]; Compound 1 17.7 mg/kg p.o) was 881.71 ± 175.49 mm3, the T/C % ([7]; Compound 1 17.7 mg/kg p.o) was 47.20% and the “Average volume (mm3) Start” value [7, 10] was 141.54 ± 14.27 mm3. For the same compound, the “Average volume (mm3) End” value [7, 10] was 179.24 ± 48.35 mm3, the T/C % [7, 10] was 9.60% and the “Average volume (mm3) Start” value ([7]; Compound 1 53 mg/kg p.o) was 142.38 ± 15.41 mm3. For the same compound, the “Average volume (mm3) End” value ([7]; Compound 1 53 mg/kg p.o) was 674.46 ± 137.82 mm3, the T/C % ([7]; Compound 1 53 mg/kg p.o) was 36.11% and the Tumor inhibition effect ([7]; in combination with dexamethasone) was “stronger tumor inhibition effect than lenalidomide”. For the same compound, the “Average body weight (g) Start of the treatment Day 1” value (from here on “Average body weight (g) Start”) ([8]; Compound 1 17.7 mg/kg p.o) was 21.60 ± 0.36 g, the “Average body weight (g) End of the treatment Day 21” value (“Average body weight (g) End” below) ([8]; Compound 1 17.7 mg/kg p.o) was 22.49 ± 0.39 g and the “Average RCBW (%)/end of the treatment Day 21” value (“Average RCBW (%)/end” for short) ([8]; Compound 1 17.7 mg/kg p.o) was 4.13%. The “Average body weight (g) Start” value [8, 11] was 21.41 ± 0.32 g, the “Average body weight (g) End” value [8, 11] was 20.46 ± 0.31 g and the “Average RCBW (%)/end” value [8, 11] was −4.46%. For the same compound, the “Average body weight (g) Start” value ([8]; Compound 1 53 mg/kg p.o) was 21.15 ± 0.36 g, the “Average body weight (g) End” value ([8]; Compound 1 53 mg/kg p.o) was 22.25 ± 0.31 g and the “Average RCBW (%)/end” value ([8]; Compound 1 53 mg/kg p.o) was 5.27%. For the same compound, the “Effect on body weight of tumor-bearing mice” value ([8]; in combination with dexamethasone, attributed to dexamethasone) was “weight loss”, the “Effect on body weight of tumor-bearing mice” value ([8]; throughout the administration period) was “does not affect the body weight” and the IC50 [9, 12] was 3 to 15 µM.

`O=C1CCC(N2Cc3c(NC(=O)CN4CCN(CCNC=C5C(=O)CC(c6ccccc6Br)CC5=O)CC4)cccc3C2=O)C(=O)N1` (centres unmarked) [Compound 157] showed a cell survival rate (% of control) at 50 µM ([1]; Homo sapiens, SU-DHL-6, read-out: Inhibitory activity against proliferation (cell survival rate) SU-DHL6) of at most 30%, a cell survival rate (% of control) at 50 µM ([2]; Homo sapiens, RPMI-8226, read-out: Inhibitory activity against proliferation (cell survival rate) RPMI-8226) of at most 30% and a cell survival rate (%) at 50 µM ([3]; Homo sapiens, K562, read-out: Inhibitory activity against proliferation (cell survival rate) K562) of at most 30%. The cell survival rate (% of control) at 50 µM ([4]; Homo sapiens, A549, read-out: Inhibitory activity against proliferation (cell survival rate) A549) was at most 30%, the cell survival rate (%) at 50 µM ([5]; Homo sapiens, MDA-MB-453, read-out: Inhibitory activity against proliferation (cell survival rate) MDA-MB-453) was 30 to 60% and the cell survival rate (%) at 50 µM ([6]; Homo sapiens, BXPC-3, read-out: Inhibitory activity against proliferation (cell survival rate) BxPC-3) was 30 to 60%. It also gave an IC50 [9] of under 3 µM.

In the case of `O=C1CCC(N2Cc3c(NC(=O)CN4CCN(CCNC=C5C(=O)CC(c6c(Cl)ccc(C(F)(F)F)c6Cl)CC5=O)CC4)cccc3C2=O)C(=O)N1` (centres unmarked) [Compound 158], the “Inhibitory activity against proliferation (cell survival rate) SU-DHL6” value [1] is reported as “+++ (survival rate (%)≤30)”, the “Inhibitory activity against proliferation (cell survival rate) RPMI-8226” value [2] is reported as “++ (30<survival rate (%)≤60)” and the “Inhibitory activity against proliferation (cell survival rate) K562” value [3] is reported as “++ (30<survival rate (%)≤60)”. The “Inhibitory activity against proliferation (cell survival rate) A549” value [4] was “+++ (survival rate (%)≤30)”, the “Inhibitory activity against proliferation (cell survival rate) MDA-MB-453” value [5] was “+++ (survival rate (%)≤30)” and the “Inhibitory activity against proliferation (cell survival rate) BxPC-3” value [6] was “+ (60≤survival rate (%)<90)”. For the same compound, the IC50 [9, 12] was under 3 µM.

In the case of `Nc1cccc2c1CN(C1CCC(=O)NC1=O)C2=O` (centres unmarked) [Lenalidomide, reference compound], the “Average volume (mm3) Start” value [7, 13] is reported as 141.35 ± 15.02 mm3, the “Average volume (mm3) End” value [7, 13] is reported as 233.72 ± 47.47 mm3 and the T/C % [7, 13] is reported as 12.51%. For the same compound, the “Average volume (mm3) Start” value [7, 14] was 140.44 ± 15.82 mm3, the T/C % ([7]; Lenalidomide 30 mg/kg p.o) was 49.67% and the “Average volume (mm3) End” value [7, 14] was 927.82 ± 164.85 mm3. For the same compound, the “Average body weight (g) Start” value [8, 15] was 21.23 ± 0.34 g, the “Average body weight (g) End” value [8, 15] was 20.08 ± 0.25 g and the “Average RCBW (%)/end” value [8, 15] was −5.33%. For the same compound, the “Average body weight (g) Start” value [8, 16] was 21.02 ± 0.23 g, the “Average body weight (g) End” value [8, 16] was 21.90 ± 0.30 g and the “Average RCBW (%)/end” value ([8]; Lenalidomide 30 mg/kg p.o.) was 4.18%.
